Reference: patent US20160008277A1, “CO-PACKAGED DRUG PRODUCTS” (Lightlake Therapeutics Inc., priority 2014, published 2016)
Where two headings read alike, the source gives them in different places.

Key:
opiate addicts = details: cited from earlier work

## C=CCN1CC[C@]23c4c5ccc(O)c4O[C@H]2C(=O)CC[C@@]3(O)[C@H]1C5 [naloxone, 17-allyl-4,5a-epoxy-3,14-dihydroxymorphinan-6-one]
0.4 mg IM
  AUC % Extrapolate, mean (% CV): 2.32 (54.1) %
  Lambda z (harmonic mean): 0.5534 h⁻¹
0.4 mg IM, Female
  Lambda z (harmonic mean): 0.6140 h⁻¹
0.4 mg IM, Male
  Lambda z (harmonic mean): 0.5152 h⁻¹
One 20 mg/mL IN, Female
  Lambda z (harmonic mean): 0.3978 h⁻¹
One 20 mg/mL IN, Male
  Lambda z (harmonic mean): 0.3492 h⁻¹
One 40 mg/mL IN, Female
  Lambda z (harmonic mean): 0.2946 h⁻¹
One 40 mg/mL IN, Male
  Lambda z (harmonic mean): 0.3386 h⁻¹
One Spray - 2 mg 20 mg/mL IN
  AUC % Extrapolate, mean (% CV): 1.09 (41.9) %
  Lambda z (harmonic mean): 0.3685 h⁻¹
One Spray - 4 mg 40 mg/mL IN
  AUC % Extrapolate, mean (% CV): 1.06 (52.5) %
  Lambda z (harmonic mean): 0.3182 h⁻¹
Two 20 mg/mL IN, Female
  Lambda z (harmonic mean): 0.2796 h⁻¹
Two 20 mg/mL IN, Male
  Lambda z (harmonic mean): 0.3122 h⁻¹
Two 40 mg/mL IN, Female
  Lambda z (harmonic mean): 0.2994 h⁻¹
Two 40 mg/mL IN, Male
  Lambda z (harmonic mean): 0.3407 h⁻¹
Two Sprays - 4 mg 20 mg/mL IN
  AUC % Extrapolate, mean (% CV): 1.01 (53.9) %
  Lambda z (harmonic mean): 0.2973 h⁻¹
Two Sprays - 8 mg 40 mg/mL IN
  AUC % Extrapolate, mean (% CV): 1.04 (78.1) %
  Lambda z (harmonic mean): 0.3217 h⁻¹
Opiate addicts
  effectiveness of nasal administration compared with intravenous route: as effective as the intravenous route
